The target in this series is IRF4. To be noted: ASO.

Several values for one entry are separate records, joined by “and”; a condition that tells them apart may be missing. Equal entries are not always repeated. After the bases stand the sugars from the 5' end (letter, count) and the backbone: PS all phosphorothioate, else s phosphorothioate and o phosphodiester by linkage. Methylation of C is not given here. e = 2'-O-(2-methoxyethyl) (MOE); k = constrained ethyl (cEt); d = 2'-deoxy (DNA)

The values that follow come from the OligoGym collection.

As to AAAAGTAACTGACACG (sugars k3 d10 k3, PS), the target mRNA inhibition (SK-MEL-28, 4 µM) turned out to be 61%.

Turning to “TTATATACTGGTTGGT (sugars kkdddddddddkdkdk, PS)”, the target mRNA inhibition (MM.1R, 1 µM) is 18%.

For the sequence CTGTATAGTTCTCAAC (sugars k3 d10 k3, PS), under “SK-MEL-28, 4 µM”, the target mRNA inhibition is 52%.

As to GGTAAGGGCCCCGTGA (sugars k3 d10 k3, PS), the target mRNA inhibition (SK-MEL-28, 4 µM) turned out to be 33%.

On to GCAGTAAACGCAAGTC (sugars k3 d10 k3, PS), for which the target mRNA inhibition (SK-MEL-28, 4 µM) was determined as 54%.

With CTCTTTAAAATATCGC (sugars k3 d10 k3, PS), the target mRNA inhibition (SK-MEL-28, 4 µM) came to 56%.

Take “CAGTGACTTGCATCCA (sugars kkdddddddddkdkdk, PS)”: the target mRNA inhibition (MM.1R, 1 µM) was determined as 36%.

On to CCCTAAGTTTAATTTA (sugars k3 d10 k3, PS), for which the target mRNA inhibition (SK-MEL-28, 4 µM) is -3%.

Consider AGGTAAGATCTCCATG (sugars k3 d10 k3, PS), for which, under “MM.1R, 1 µM”, the target mRNA inhibition was 32%.

On to CGCTCAAAGACCAGCT (sugars k3 d10 k3, PS), for which the target mRNA inhibition (SK-MEL-28, 4 µM) was found to be 56%.

Regarding ATAACGAGGTGCCTTA (sugars k3 d10 k3, PS), under “SK-MEL-28, 4 µM”, the target mRNA inhibition worked out at 13%.

As for AAGCAGTCATCACTCT (sugars k3 d10 k3, PS), the target mRNA inhibition (SK-MEL-28, 4 µM) came to 38%.

On to CTGCAAATCCCTCTTG (sugars k3 d10 k3, PS), for which, under “SK-MEL-28, 4 µM”, the target mRNA inhibition is -33%.

On to CCTCAAAGTCATTGCT (sugars k3 d10 k3, PS), for which the target mRNA inhibition (SK-MEL-28, 4 µM) amounted to 21%.

On to AGCACTGGCATTGAGA (sugars k3 d10 k3, PS), for which the target mRNA inhibition is 4% (MM.1R, 0.074 µM); 0% (MM.1R, 0.222 µM); 10% (MM.1R, 0.666 µM); 24% (MM.1R, 2 µM); -4% and 10% and -11% (SK-MEL-28, 0.185 µM); 74% (SK-MEL-28, 4 µM). Further, where the note is “SK-MEL-28, 15 µM”, the target mRNA inhibition is 86% and 83% and 98%.

Take “AGTATGAGAAACGGCC (sugars kddddddddddkekek, PS)”: the target mRNA inhibition (MM.1R, 1 µM) turned out to be 10%.

As to TACGAGAGGGTCTGAT (sugars k3 d10 k3, PS), where the note is “SK-MEL-28, 4 µM”, the target mRNA inhibition was determined as 0%.

For CTAAGGAGACAGTAAC (sugars k3 d10 k3, PS), under “SK-MEL-28, 4 µM”, the target mRNA inhibition is 29%.

Turning to GGCGGAGCATCAACAA (sugars k3 d10 k3, PS), the target mRNA inhibition (SK-MEL-28, 4 µM) came out at 60%.

GCTCAGAATGAAGTTA (sugars k3 d10 k3, PS): the target mRNA inhibition (SK-MEL-28, 4 µM) was 48%.

“TGATGTGATAGCTGAG (sugars kkddddddddddkeke, PS)”: the target mRNA inhibition (MM.1R, 1 µM) amounted to 54%.

On to GCAAGCTGAATGCTCT (sugars k3 d10 k3, PS), for which, where the note is “SK-MEL-28, 4 µM”, the target mRNA inhibition was 53%.

As for GGTAAACTGCCTTAGG (sugars k3 d10 k3, PS), the target mRNA inhibition (SK-MEL-28, 4 µM) came out at 25%.

As for “TACTGCTTGAGGTTTT (sugars kkdddddddddkekek, PS)”, the target mRNA inhibition (MM.1R, 1 µM) is 22%.

For TGATAGTGGTGATGTC (sugars k3 d10 k3, PS), the target mRNA inhibition (SK-MEL-28, 4 µM) was 54%.

Turning to TGTAATGTAGGGATAC (sugars k3 d10 k3, PS), the target mRNA inhibition (SK-MEL-28, 4 µM) is 53%.

“AGTTGTAAATGAGTCG (sugars kkkddddddddkekek, PS)”: the target mRNA inhibition runs as follows: (MM.1R, 0.074 µM) 18%; (MM.1R, 0.222 µM) 46%; (MM.1R, 0.666 µM) 49%; (MM.1R, 1 µM) 61%; (MM.1R, 2 µM) 73%.

Take TTTGCTTTGGGCACCA (sugars k3 d10 k3, PS): the target mRNA inhibition (MM.1R, 1 µM) was 24%.

In the case of “TGCTTGAGGTTTTCCT (sugars kkdddddddddkekek, PS)”, the target mRNA inhibition (MM.1R, 1 µM) was 36%.

Turning to GGCCAAATTGCAAAGG (sugars k3 d10 k3, PS), the target mRNA inhibition (SK-MEL-28, 4 µM) was 48%.

As to AGTAAGAGGGCAGTCA (sugars k3 d10 k3, PS), the target mRNA inhibition (SK-MEL-28, 4 µM) stood at 50%.

As to GAGGTAAATCTTCACT (sugars k3 d10 k3, PS), where the note is “SK-MEL-28, 4 µM”, the target mRNA inhibition turned out to be 70%.

As for TCCTCCTCGCGGTTGT (sugars k3 d10 k3, PS), under “SK-MEL-28, 4 µM”, the target mRNA inhibition was determined as 59%.

For the sequence “TCTATAGTGTTCCAGG (sugars k3 d9 k3 e1, PS)”, the target mRNA inhibition (MM.1R, 1 µM) was determined as 52%.

In the case of AGGAACAATCCTGTAC (sugars k3 d10 k3, PS), the target mRNA inhibition (SK-MEL-28, 4 µM) was found to be 16%.

As for AGGTAGTAGACCACAG (sugars k3 d10 k3, PS), the target mRNA inhibition (SK-MEL-28, 4 µM) amounted to 59%.

Turning to ATAAGATCCCACGAAG (sugars k3 d10 k3, PS), the target mRNA inhibition (SK-MEL-28, 4 µM) is -42%.

As for AAAAATATAACGGTGT (sugars k3 d10 k3, PS), the target mRNA inhibition (SK-MEL-28, 4 µM) worked out at 24%.

As to CGAAGAATTTTAGCAT (sugars k3 d10 k3, PS), the target mRNA inhibition (SK-MEL-28, 4 µM) amounted to 58%.

In the case of CCCAAAATACTTTGCA (sugars k3 d10 k3, PS), under “SK-MEL-28, 4 µM”, the target mRNA inhibition was determined as 64%.

GGCAGTGGAGCTCCAC (sugars k3 d10 k3, PS): the target mRNA inhibition (SK-MEL-28, 4 µM) turned out to be 73%.

With TCAGTTGTAAATGAGT (sugars k3 d10 k3, PS), the target mRNA inhibition (SK-MEL-28, 4 µM) came to 72%.

Turning to AGACCAGGATTCGCCA (sugars k3 d10 k3, PS), the target mRNA inhibition (SK-MEL-28, 4 µM) amounted to 33%.

As to “GTGATGTCAGGTTTTC (sugars kkkddddddddkekek, PS)”, the target mRNA inhibition was found to be 14% (MM.1R, 0.074 µM); 35% (MM.1R, 0.222 µM); 54% (MM.1R, 0.666 µM); 57% (MM.1R, 1 µM); 77% (MM.1R, 2 µM).

With GCATGAGGGTGACACA (sugars k3 d10 k3, PS), where the note is “SK-MEL-28, 4 µM”, the target mRNA inhibition was 42%.

With “ACTGTTACCGATGCTT (sugars kkdddddddddkdkdk, PS)”, the target mRNA inhibition (MM.1R, 1 µM) is 22% and 31%.

Consider AGAGAGTCCGACGCAC (sugars k3 d10 k3, PS), for which the target mRNA inhibition (MM.1R, 1 µM) was -18%.

Consider AATATAGTTGTCTGGC (sugars k3 d10 k3, PS), for which, where the note is “SK-MEL-28, 4 µM”, the target mRNA inhibition was 50%.

With CCGCAGCCCAAAGGCT (sugars k3 d10 k3, PS), under “MM.1R, 1 µM”, the target mRNA inhibition amounted to 4%.

TAATAATGCTTGCAAG (sugars k3 d10 k3, PS): under “SK-MEL-28, 4 µM”, the target mRNA inhibition was 12%.

For GAACACACCAGGTTAA (sugars k3 d10 k3, PS), under “SK-MEL-28, 4 µM”, the target mRNA inhibition is -2%.

On to AGGAAACCGCTGGCAG (sugars k3 d10 k3, PS), for which the target mRNA inhibition (SK-MEL-28, 4 µM) worked out at 56%.

On to AAGTTTACACTGGATC (sugars k3 d10 k3, PS), for which the target mRNA inhibition (SK-MEL-28, 4 µM) came to 58%.

Consider AGCAAAGCAAGTGTCT (sugars k3 d10 k3, PS), for which the target mRNA inhibition (SK-MEL-28, 4 µM) is 58%.

As to ATCTGAATTGTTACTA (sugars k3 d10 k3, PS), the target mRNA inhibition (SK-MEL-28, 4 µM) was found to be 12%.

Turning to “ATGTTAGCCAATTCCT (sugars k2 d9 e3 k2, PS)”, the target mRNA inhibition (MM.1R, 1 µM) was 17% and 6%.

In the case of GCGCATCCCCTGGGCG (sugars k3 d10 k3, PS), the target mRNA inhibition (SK-MEL-28, 4 µM) was -4%.

Regarding “TGGTTGGCTGGTCTTT (sugars kkdddddddddekeke, PS)”, the target mRNA inhibition (MM.1R, 1 µM) was 60%.

For CTTCACTACCTGCAGC (sugars k3 d10 k3, PS), the target mRNA inhibition (SK-MEL-28, 4 µM) amounted to 22%.

As for ATTAATTCTCCTATGC (sugars k3 d10 k3, PS), where the note is “SK-MEL-28, 4 µM”, the target mRNA inhibition turned out to be 15%.

Take ATTTTCACAAGCTGGG (sugars k3 d10 k3, PS): under “SK-MEL-28, 4 µM”, the target mRNA inhibition came out at 39%.

Regarding TGCCTAGGACTAAGGA (sugars k3 d10 k3, PS), the target mRNA inhibition (SK-MEL-28, 4 µM) worked out at 26%.

“ACACTTTTAGAGAGGA (sugars kkkddddddddkekek, PS)”: the target mRNA inhibition (MM.1R, 1 µM) was found to be 15%.

In the case of GGCTATCAGGATCTCA (sugars k3 d10 k3, PS), the target mRNA inhibition (SK-MEL-28, 4 µM) was 45%.
